Test results as given in patent US9682963B2, “Pyridine derivatives as soft rock inhibitors” (Amakem NV, priority 2013, dated 2017).

What was measured:
[1] = tested on: MLC-T18/S19 phosphorylation in A7r5 cells (endogenous ROCK); experiment: MLC phosphorylation assay (ELISA) in A7r5 cells; assay type: cell-based; conditions: Rattus norvegicus, serum-free medium, phospho-MLC-T18/S19 ELISA, read-out: EC50 MLC-PP
Description: Rat smooth muscle cell line A7r5 is used. The endogenous expression of ROCK results in a constitutive phosphorylation of the regulatory myosin light chain at T18/S19. A7r5 cells were plated in DMEM supplemented with 10% FCS in multiwall cell culture plates. After serum starvation overnight, cells were incubated with compounds in serum-free medium.
Quantification of MLC-T18/S19 phosphorylation is assessed in 96 well-plates via ELISA using a phospho-MLC-T18/S19 specific antibody and a secondary detection antibody. Raw data were converted into percent substrate phosphorylation relative to high controls, which were set to 100%. EC50 values were determined using GraphPad Prism 5.01 software using a nonlinear regression curve fit with variable hill slope.

[2] = Stability assay in human plasma; assay type: in vitro ADME; conditions: 1 μM in human plasma, LC-MS/MS; read-out: t½ human plasma
Description: Compounds are incubated at a concentration of 1 μM in human (or animal) plasma. Samples are taken at fixed time points and the remnant of compound is determined by LC-MS/MS after protein precipitation. Half life in table C.2.1 is expressed in minutes.

[3] = Stability towards drug metabolizing enzymes in lung S9; assay type: in vitro ADME; conditions: human, lung S9 fraction, lung S9 with NADPH, UDPGA, PAPS and GSH, read-out: t½ human lung S9
Description: A 1 μM solution of the ROCK inhibitors is incubated with a reaction mixture containing lung S9 (EDTA-free) as well as the cofactors NADPH, UDPGA, PAPS and GSH. Samples are collected at 0, 15, 30 and 60 minutes post incubation. Negative control samples incubated with ROCK inhibitors and S9 fraction in the absence of cofactors are run in parallel. By using LC-MS/MS analysis, the percent of ROCK compounds remaining at each time point, the metabolic half-life of the ROCK compounds (expressed in minutes in table C.2.2) and the metabolic half-life of the control compounds are determined.

[4] = Stability in human intestinal tissue homogenate; assay type: in vitro ADME; conditions: 40 mg/ml human intestinal homogenate, read-out: t½ (min) human
Description: A 1 μM solution of the ROCK inhibitors is incubated with human intestinal tissue homogenate (final concentration: 40 mg/ml) Samples are collected at 0, 20 and 60 minutes post incubation. By using LC-MS/MS analysis, the percent of ROCK compounds remaining at each time point, the metabolic half-life of the ROCK compounds (expressed in minutes in table C.2.3) and the metabolic half-life of control compounds are determined.

[5] = Stability in mouse intestinal homogenate; assay type: in vitro ADME; conditions: 40 mg/ml mouse intestinal homogenate, read-out: t½ (min) mouse
male BALB/c mice = experiment: Acute LPS lung challenge model, BALF cell counts; assay type: in vivo, mouse; conditions: 0.1 and 0.01 mg/kg intratracheally 0.5 hr before LPS; BALF at 24 hrs; versus dexamethasone 1 mg/kg oral
Description: FIG. 1: Anti-inflammatory activity of Cpd4 in an acute LPS lung challenge model (mouse). Data is provided as bronchoalveolar lavage fluid (BALF) cell count (10^3/μl)±SEM. WBC: White Blood Cell. NEUT: Neutrophil. Dex: Dexamethasone control.
Selected compounds of the invention were evaluated in vivo in an acute LPS lung challenge model. Groups of 6 male BALB/c mice were used for each tested dose and for positive and negative controls. Under anesthesia with gas anesthetics (isoflurane), test substances and vehicle (0.9% NaCl, 1 mL/kg) were administered intratracheally (IT) to test animals 0.5 hr prior to challenge with ˜80 μg/kg of E. coli lipopolysaccharide (LPS, Sigma, serotype 055:B5, in sterile saline, 2 μg in 20 μL per mouse intratracheally). Dexamethasone, the positive control, at 1 mg/kg in 2% Tween 80 was given orally to test animals one hour before LPS challenge. Mice were anaesthetized with isoflurane at 24 hrs after LPS challenge, 0.5 mL of phosphate buffered saline (PBS, pH 7.4) was instilled into the lung twice through a tracheal cannula, after which about a total of 0.6˜0.8 mL of bronchoalveolar lavage fluid (BALF) was obtained. Total cell and neutrophils counts in BALF were then determined and one-way ANOVA followed by Dunnett's test was used to analyze difference between the vehicle control and treated groups. Significant difference is considered at P<0.05.

Structure (SMILES) | EC50 [1] | half-life at 1 μM [2] | half-life at 1 μM [3] | half-life at 1 μM [4] | half-life at 1 μM [5] | anti-inflammatory activity (BALF WBC and neutrophil count) (male BALB/c mice)
NCc1ccc(C(=O)Nc2ccncc2F)cc1-c1cccc(C(=O)Nc2cccc(SC3CCOC3=O)c2)c1 (stereo not shown) [Cpd 8, 6-(aminomethyl)-N^3-(3-fluoropyridin-4-yl)-N^3′-(3-((2-oxotetrahydrofuran-3-yl)thio)phenyl)-[1,1′-biphenyl]-3,3′-dicarboxamide] | 100 to 1000 nM | < 20 min | – | – | – | –
NCc1ccc(C(=O)Nc2ccncc2F)cc1-c1cccc(C(=O)Nc2ccc(OC3CCOC3=O)cc2)c1 (stereo not shown) [Cpd 3, 6-(aminomethyl)-N^3-(3-fluoropyridin-4-yl)-N^3′-(4-((2-oxotetrahydrofuran-3-yl)oxy)phenyl)-[1,1′-biphenyl]-3,3′-dicarboxamide] | 100 to 1000 nM | < 20 min | – | – | – | –
NCc1ccc(C(=O)Nc2ccncc2F)cc1-c1cccc(C(=O)Nc2ccc(SC3CCOC3=O)cc2)c1 (stereo not shown) [Cpd 6, 6-(aminomethyl)-N^3-(3-fluoropyridin-4-yl)-N^3′-(4-((2-oxotetrahydrofuran-3-yl)thio)phenyl)-[1,1′-biphenyl]-3,3′-dicarboxamide] | < 100 nM | < 20 min | > 60 min | – | – | –
NCc1ccc(C(=O)Nc2ccncc2F)cc1-c1cccc(NC(=O)c2ccc(NC3CCOC3=O)cc2)c1 (stereo not shown) [Cpd 13, 6-(aminomethyl)-N-(3-fluoropyridin-4-yl)-3′-(4-((2-oxotetrahydrofuran-3-yl)amino)benzamido)-[1,1′-biphenyl]-3-carboxamide] | < 100 nM | < 20 min | > 60 min | – | – | –
CN(c1ccc(NC(=O)c2cccc(-c3cc(C(=O)Nc4ccncc4F)ccc3CN)c2)cc1)C1CCOC1=O (stereo not shown) [Cpd 7, 6-(aminomethyl)-N^3-(3-fluoropyridin-4-yl)-N^3′-(4-(methyl(2-oxotetrahydrofuran-3-yl)amino)phenyl)-[1,1′-biphenyl]-3,3′-dicarboxamide] | < 100 nM | < 20 min | > 60 min | > 120 min | > 120 min | –

Further lines, with some results ahead:

EC50 [1] | half-life at 1 μM [2] | half-life at 1 μM [3] | half-life at 1 μM [4] | half-life at 1 μM [5] | Structure (SMILES) | anti-inflammatory activity (BALF WBC and neutrophil count) (male BALB/c mice)
< 100 nM | < 20 min | > 60 min | > 120 min | > 120 min | NCc1ccc(C(=O)Nc2ccncc2F)cc1-c1cccc(C(=O)Nc2ccc(SCC3CCOC3=O)cc2)c1 (stereo not shown) [Cpd 2, 6-(aminomethyl)-N^3-(3-fluoropyridin-4-yl)-N^3′-(4-(((2-oxotetrahydrofuran-3-yl)methyl)thio)phenyl)-[1,1′-biphenyl]-3,3′-dicarboxamide] | –
< 100 nM | < 20 min | – | – | – | NCc1ccc(C(=O)Nc2ccncc2F)cc1-c1cccc(C(=O)Nc2ccc(SC3COC(=O)C3)cc2)c1 (stereo not shown) [Cpd 11, 6-(aminomethyl)-N^3-(3-fluoropyridin-4-yl)-N^3′-(4-((2-oxotetrahydrofuran-4-yl)thio)phenyl)-[1,1′-biphenyl]-3,3′-dicarboxamide] | –
< 100 nM | < 20 min | – | – | – | NCc1ccc(C(=O)Nc2ccncc2F)cc1-c1cccc(C(=O)Nc2ccc(SC3CCOC3=O)cc2F)c1 (stereo not shown) [Cpd 12, 6-(aminomethyl)-N^3-(3-fluoropyridin-4-yl)-N^3′-(2-fluoro-4-((2-oxotetrahydrofuran-3-yl)thio)phenyl)-[1,1'-biphenyl]-3,3′-dicarboxamide] | –
< 100 nM | < 20 min | > 60 min | – | > 120 min | NCc1ccc(C(=O)Nc2ccncc2F)cc1-c1cccc(C(=O)Nc2ccc(NC3CCOC3=O)cc2)c1 (stereo not shown) [Cpd 5, 6-(aminomethyl)-N^3-(3-fluoropyridin-4-yl)-N^3′-(4-((2-oxotetrahydrofuran-3-yl)amino)phenyl)-[1,1′-biphenyl]-3,3′-dicarboxamide] | –
100 to 1000 nM | < 20 min | > 60 min | – | – | NCc1ccc(C(=O)Nc2ccncc2F)cc1-c1cccc(C(=O)Nc2ccc(CNC3CCOC3=O)cc2)c1 (stereo not shown) [Cpd 1, 6-(aminomethyl)-N^3-(3-fluoropyridin-4-yl)-N^3′-(4-(((2-oxotetrahydrofuran-3-yl)amino)methyl)phenyl)-[1,1′-biphenyl]-3,3′-dicarboxamide] | –
< 100 nM | < 20 min | – | – | – | CC1CC(Sc2ccc(NC(=O)c3cccc(-c4cc(C(=O)Nc5ccncc5F)ccc4CN)c3)cc2)C(=O)O1 (stereo not shown) [Cpd 9, 6-(aminomethyl)-N^3-(3-fluoropyridin-4-yl)-N^3′-(4-((5-methyl-2-oxotetrahydrofuran-3-yl)thio)phenyl)-[1,1′-biphenyl]-3,3′-dicarboxamide] | –
< 100 nM | < 20 min | > 60 min | – | – | NCc1ccc(C(=O)Nc2ccncc2F)cc1-c1cccc(NC(=O)c2ccc(SC3CCOC3=O)cc2)c1 (stereo not shown) [Cpd 4, 6-(aminomethyl)-N-(3-fluoropyridin-4-yl)-3′-(4-((2-oxotetrahydrofuran-3-yl)thio)benzamido)-[1,1′-biphenyl]-3-carboxamide] | equivalent to the dexamethasone control
